From patent US4652584A, “Acetylenic phenoxypropanol derivatives and pharmaceutical compositions for the treatment of hypertension” (McNeilab, Inc., priority 1984, dated 1987)
Read-outs that look alike come from different tables or passages of the source.

Columns and labels:
[1] = system: Isolated Heart (coronary arteries); assay: Langendorff's Isolated Heart model (coronary vasodilation)
Method: In addition to their utility in the treatment of hypertension, the compounds of formula (I) are useful in the treatment of the symptoms of angina pectoris by virtue of their ability to dilate coronary arteries. Often, peripheral arteries are also dilated by compounds which dilate coronary arteries and thus, this test is also useful for predicting activity as an antihypertensive. Compounds of the invention were tested in this regard in the "Langendorff's Isolated Heart" model as generally described in "Pharmaceutical Experiments on Isolated Preparations", Staff of the Department of Pharmacology, University of Edinbourgh, 2nd Ed., Churchill, Livingston, N.Y. (1970) pages 112-119. In this test, the compound of the invention of formula (I) produced in Example 6b. required a 0.04 μM concentration to elicit a 30% increase in flow.

Beta-1 = molecular target: T1, Beta-1 (Cavia porcellus, UniProt H0W3H1); details: guinea pig atrial pairs, isoproterenol tachycardia, Schild plot; read-out: pA2 (converted)
T1 construct: The atria were mounted in 50 ml baths in Krebs-bicarbonate buffer; from tissue; host or cells: guinea pig atria (isolated atrial pairs, female animals)

[2] = system: isolated rabbit thoracic aorta; assay: Calcium Entry Blockade test: tension (tone) of vascular rings; details: for inhibition at 10 µM: Oryctolagus cuniculus, 10 μM compound
Excerpt: (§1) A fourth test for determining the ability of compounds of the invention to act as anti-hypertensive agents is the Calcium Entry Blockade test using vascular smooth muscle. Male New Zealand White Rabbits (H.A.R.E.) (body weight=1.8-2.4 kg) are sacrificed by cervical fracture and the thoracic aorta is removed under standard HEPES buffer. The aorta is rinsed in several changes of standard HEPES and cleared of extraneous tissue. Scissors are used to segment the aorta into 3 mm rings (approximately 12 rings/aorta). For studies of tension, individual rings are equilibrated for one hour in standard HEPES buffer under isometric tension (1 g) between two parallel horizontal wires. For calcium influx studies, the following procedures are executed. After completion of the one-hour equilibration period, the test is begun. To baths containing vascular rings to be tested for the effects of an experimental agent on calcium influx in the basal state (absence of an agonist), the agent dissolved in 20 μl of vehicle (PEG 300 or H2 O) is added and a parallel vehicle bath is started receiving the vehicle alone. To baths containing vascular rings to be tested for the effects of an experimental agent on calcium influx during agonist stimulation, the experimental agent is added in a fashion identical to that described for the basal test and parallel vehicle baths are also initiated. All baths are allowed to equilibrate for 30 minutes. Subsequently, to basal test baths, 20 μl of H2 O is added; to baths receiving KCl, 400 μl of H2 O containing 60 mM KCl is added; to baths receiving NE, 20 μl of H2 O containing 10 μM NE is added. All baths are allowed to equilibrate for an additional 281/2 minutes. At this time, all rings in each bath are removed from their respective bath, quickly but gently blotted and transferred to a bath containing an identical solution but also containing ^45 Ca(20 μl, 2.5 μCi/ml; New England Nuclear, Boston, MA). Rings are allowed exposure to the radiolabelled solution for exactly three minutes. Subsequently, the rings are removed, blotted to remove excess fluid, and placed in predesignated test tubes containing ice cold wash solution where they are allowed to equilibrate for 45 minutes in the presence of vigorous bubbling with 100% O2. Subsequently, individual rings are removed, blotted, weighed (Mettler Balance model AE 163), and placed in a scintillation vial containing 2 ml of 7.5 mM EDTA solution (pH=10.0). Vials are held overnight in darkness. […] Subsequently, 13 ml of Beckman HP scintillation fluid is added to each vial with shaking, vials are cleaned, and counted using a Beckman LS 6800 liquid scintillation counter. Blanks containing solutions alone are simultaneously counted to provide background information.
(§2) For tension studies, the following procedures are executed. After completion of the one-hour equilibration period, the test is begun. At this time, all tissue tensions are adjusted mechanically back to the 1 gram baseline. Subsequently, all tissue baths receive either KCl (60 mM) plus phentolamine (1 μM) in 400 μl H2 O or NE (10 μM in 20 μl PEG 300). All rings are allowed to develop tension for exactly 30 minutes. Subsequently, the bathing solution is removed and replaced immediately with normal HEPES buffer without experimental agents and the tension response is allowed to "wash out". Two subsequent washes are introduced at 10 minute intervals before the rings can achieve the prestimulation baseline tone. Subsequently, the experimental drug or vehicle is added to each bath and the rings are allowed to equilibrate for exactly 30 minutes. Finally, the agonist challenge is repeated as described previously in the presence of the experimental agent. […]

Beta Adrenergic = assay: Evaluation of Potential Beta Adrenergic Blocking Activity; set-up: species or system guinea pig; details: overall result in words
[3] = system: isolated rabbit thoracic aorta (potential-dependent calcium channel); assay: Calcium Entry Blockade test: 45Ca influx in vascular rings; details: for calcium channel blocking / calcium entry blockade activity: overall result in words
Excerpt: as §1, §2

[4] = system: spontaneously hypertensive rats; assay: Spontaneously Hypertensive Rat (SHR) test, mean arterial pressure via aortic cannula; type: in vivo; details: 30 mg per kg of body weight, p.o.
Excerpt: The activity of compounds of formula (I) for the treatment of hypertension may be determined using the Spontaneously Hypertensive Rat (SHR) test as described below.
In this test, the arterial pressure of adult spontaneously hypertensive rats (Charles River) is monitored directly via an aortic cannula. The SH rats are anesthetized with an inhalation anesthetic (ether). The left carotid artery is isolated and cannulated. The tip of the cannula is advanced to the aorta and the cannula is exteriorized behind the neck at the level of the scapula. Animals are placed in individual cages and allowed to recover from the anesthetic and are kept unrestrained. The arterial cannula is connected to the pressure transducer which is attached to the recorder. The test compounds are administered to at least 3 rats at doses selected in the range of 0.1 to 100 mg/kg of body weight by intraperitoneal (i.p.) or oral (p.o.) routes of administration. The arterial pressure and heart rate are monitored for a minimum of 24 hours. A test compound is considered to be active as an antihypertensive agent if the mean arterial pressure (MAP) indicates a fall of >15 mm of Hg. Each animal serves as its own control.

[5] = isolated Langendorff test, 0.01 to 3.0 μM
[6] = KCl stimulated, 1.0 and 10.0 μM

T1 sequence (H0W3H1 1-470): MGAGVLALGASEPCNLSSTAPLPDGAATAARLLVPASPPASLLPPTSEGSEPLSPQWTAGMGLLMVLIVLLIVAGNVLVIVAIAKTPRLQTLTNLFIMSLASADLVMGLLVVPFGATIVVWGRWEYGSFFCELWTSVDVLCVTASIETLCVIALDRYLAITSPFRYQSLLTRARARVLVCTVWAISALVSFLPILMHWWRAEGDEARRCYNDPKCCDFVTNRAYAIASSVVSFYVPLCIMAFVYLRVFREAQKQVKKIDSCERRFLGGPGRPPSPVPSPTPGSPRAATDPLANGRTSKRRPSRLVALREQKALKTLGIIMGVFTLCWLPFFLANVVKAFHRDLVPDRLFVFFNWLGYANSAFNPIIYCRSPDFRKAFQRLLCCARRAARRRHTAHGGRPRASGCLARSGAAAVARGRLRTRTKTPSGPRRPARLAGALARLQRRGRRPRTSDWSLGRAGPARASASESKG

## COc1ccc(C#Cc2ccccc2)c(OCC(O)CNCCc2ccc(OC)c(OC)c2)c1 (stereo not shown) [Example 6b, 1-[[2-(3,4-Dimethyoxyphenyl)ethyl]amino]-3-[5-methoxy-2-(phenylethynyl)phenoxy]-2-propanol (E)-2-Butenedioate (2:1)]
[1]; Langendorff isolated heart, 30% increase in flow, read-out: concentration required to elicit a 30% increase in flow
  EC30: 40 nM
[1]; at 0.1 μM
  activation at 0.1 µM: 39%
[1]; [5]
  coronary vasodilator activity: active coronary vasodilator
  effect on contractile force: no effect
  effect on spontaneous rate: no effect

## CC(=O)Nc1cccc(C#Cc2ccccc2OCC(O)CNC(C)(C)C)c1 (stereo not shown) [Example 18, N-[3-[[2-[3-[(1,1-Dimethylethyl)amino]-2-hydroxypropoxy]phenyl]ethynyl]phenyl]acetamide 4-methylbenzene sulfonate]
Beta-1
  Kb: 7.08 nM

## CC(C)(C)NCC(O)COc1ccccc1C#Cc1ccccc1.Cl (stereo not shown) [Example 1d, 1-[(1,1-Dimethylethyl)amino]-3-[2-(phenylethynyl)phenoxy]-2-propanol Hydrochloride]
[2]; [6]
  inhibition of KCl stimulated effects on tone: dose dependent inhibition
[2]; KCl stimulated, read-out: inhibition of KCl stimulated tone
  inhibition at 10 µM: 100%
[2]; isolated rabbit thoracic aorta
  blockade of related vascular tone: significant blockade
[2]
  effect on norepinephrine-induced tone / tension: no effect
Beta Adrenergic
  β-blocking activity: β-blocking
[3]; KCl stimulated, 10 μM compound
  inhibition of KCl stimulated calcium influx: 100%
[3]; [6]
  inhibition of KCl stimulated effects on calcium influx: dose dependent inhibition
[3]; isolated rabbit thoracic aorta
  blockade of the potential-dependent calcium channel: significant blockade
  calcium channel blocking / calcium entry blockade activity: calcium entry blockade activities
[3]
  effect on norepinephrine-induced calcium influx: no effect

## CN(C)c1ccc(C#Cc2ccccc2OCC(O)CNC(C)(C)C)cc1.O=C(O)/C=C/C(=O)O (stereo not shown) [Example 16, 1-[(1,1-Dimethylethyl)amino]-3-[2-[(4-dimethylaminophenyl)ethynyl]phenoxy]-2-propanol (E)-2-Butenedioate (1:1)]
[2]; KCl-dependent, read-out: reduction of KCl-dependent contractile activity
  inhibition at 10 µM: 50%
[2]
  effect on norepinephrine-induced tone / tension: without changing tension
[3]; KCl-dependent, 10 μM compound
  effect on KCl-dependent calcium flux: no effect
[3]; isolated rabbit thoracic aorta
  calcium channel blocking / calcium entry blockade activity: did not exhibit typical calcium channel blocking activity
[3]
  effect on norepinephrine-induced calcium influx: reduced norepinephrine-induced calcium flux
[4]
  maximum change in mean arterial blood pressure (fall): 69 mm of Hg
